Data set [1] concerns megalin pathway. In words: LMW proteinuria (urinary CC16) in WT mice under 5x-dAA diets. To be noted: WT C57Bl-6 mice, 3 weeks diet, vs control diet. The class given is in vivo. On the procedure: In a second experiment, 5x-D-lysine was compared to regular diet.
(§1) Body weight was recorded before entering the metabolic cages. […] Creatinine clearance was normalized by mouse body weight.

Data set [2] in a line: Clinical urine and serum analyses in Ctns KO mice under 5x-dAA diets.
Excerpt: We also attempted to further discriminate between luminal (competition for surface megalin binding) and intracellular metabolic effects (see Discussion) by comparing the effects of 5x-L-lysine to its stereoisomer, 5x-D-lysine. Unless stated otherwise, diets were initiated at 6 months-of-age, and mice were studied then euthanized at 8 months-of-age (2-months treatment). This time frame was selected for two reasons. First, in the mouse cystinosis model, this an appropriate window to evaluate the impact on PTC alterations based on changes in kidney cystine accumulation and overall function. […] Second, although primary prevention by earlier intervention (from 2-to-6 months-of-age) better mimics perinatal genetic megalin ablation, thus could be more efficient, secondary intervention (starting at 6 months-of-age), when disease becomes clinically apparent, is more relevant for further translational studies.
as §1

A further data set relates to NaPi-IIa and SGLT-2. In words: NaPi-IIa and SGLT-2 mRNA levels in Ctns KO mice kidneys. The conditions noted are these: Ctns KO mice kidneys at 8 months of age, fold-change viz control diet. The format is in vivo. Here is the method: At cellular level, we assessed PT cell death linked to compensatory renewal, by measuring Ki-67 immunolabelling abundance, a validated proliferation index (Fig. 6a)[22]. […] At subcellular level, NaPi-IIa and SGLT-2 mRNA levels were measured as apical differentiation markers (Fig. 6b,c).
Figure 6 Effects of diets on selected PTC indices in Ctns KO mice kidneys at 8 months of age. (a) Proliferative events in PTCs were identified by Ki-67 immunolabelling in confocal images and scored over random fields to cumulative areas of 0.96 mm^2. […] For representative confocal images and proliferation events in all cortical compartments, see Supplemental Fig. 6. (b,c) Apical differentiation state. Expression levels of NaPi-IIa and SGLT-2 as representative apical PT transporters were calculated as ratios to the housekeeping gene, HPRT1, and presented as fold-change viz control diet.

Data set [3] concerns kidney proximal tubular cells. In words: Triple fluorescence of lysosomes and endogenous albumin in PTCs of Ctns KO mice (2-to-6 months diet). The class given is in vivo. The conditions noted are these: Ctns KO female mice, diet from 2-to-6 months-of-age. On the procedure: For in vivo endocytic tracing in PTCs, Texas Red-ovalbumin (300 µg, Invitrogen #O23021) was injected intravenously at 20 min before sacrifice. For immunofluorescence, antigen retrieval was promoted in citrate buffer, pH 6, at 95 °C for 20 min using a Lab Vision Pretreatment Module™ (Thermo Scientific). Tissue was permeabilized with PBS/0.3% Triton-X100 for 5 min, then for one further hour with 10% bovine serum albumin (BSA)/3% milk to block non-specific sites. Sections were incubated overnight at 4 °C with the following primary reagents in blocking buffer: sheep anti-megalin (1/800, kindly provided by Drs P. Verroust and R. Kozyraki, INSERM U968, Paris, F-75012, FR), rat anti-LAMP-1 (1/100; #1D4B, Hybridoma Bank), mouse anti-ezrin (1/100, #MS-661-P1, ThermoScientific), mouse anti-Ki67 (1/250, #556003, BD-Pharmingen), rabbit anti-human albumin (1/1000; Dako #A0001). After washing, sections were further incubated with the appropriate AlexaFluor-secondary antibodies for 1 h at room temperature in 10% BSA/0.3% Triton-X100 and mounted with Faramount aqueous mounting medium (Dako). Sections were imaged on a spinning disk confocal microscope using EC Plan-NeoFluar 40X/1.3 or 100x/1.4 Oil DIC objective (Cell Observer Spinning Disk; Zeiss). Proliferative events in kidney cortex were quantified as described. Alternatively, whole kidney images were acquired using a Pannoramic 250 Flash III microscope (3DHistech). Histological PAS staining and quantification of the frequency of swan-neck lesions were performed as described. Sirius Red staining of paraffine sections and morphometry in total sagittal kidney sections after conversion to red fluorescence were performed as described[53],[54]. […]
Supplemental Figure 3. […]
not detected within PT lysosomes of dAA-treated mice under identical immunolabeling /imaging conditions, indicating impaired endocytosis and/or […] degradation upon dbAA supplementation. […]

Data set [4] has as its system megalin pathway. The experiment in a line: LMW proteinuria / albuminuria in Ctns KO mice under 5x-dAA diets.
Description: After 24-h adaptation in metabolic cages, urine was collected during the following 24 h in presence of 0.1% sodium azide and 1x-protease inhibitors (Thermo Scientific). When in metabolic cages, mice had free access to tap water and food. Blood was collected 2 days before starting the treatments and entry into metabolic cages (baseline) and at the sacrifice to obtain serum. Body weight was recorded before entering the metabolic cages. Urine and serum analyses were performed by the veterinary laboratory Appialab Srl (Rome, Italy). Urinary levels of CC16 were measured by the Mouse Clara Cell Protein 16 kit 96 T #EKU03200 (Biomatik) according to manufacturer’s instructions. Serum levels of cystatin-C were measured by the Mouse/Rat Cystatin C Quantitative ELISA #MSCTC0 (R&D Systems). […] Creatinine clearance was normalized by mouse body weight.
Where [5] appears, read: Ctns KO mice at 8 months of age, 2 months of treatment, urine, mean ± SEM.
Setting [6] is: Ctns KO mice at 8 months of age, 2 months of treatment, serum, mean ± SEM.

With `N=C(N)NCCC[C@H](N)C(=O)O` [5x-L-arginine, L-arginine], the “increase of urinary excretion of CC16 (normalized for creatinine excretion)” value with megalin pathway [1] is on record as “did not detectably increase”. In data set [2] (mouse, in vivo), the Calculated creatinine clearance is recorded as 40.7 ± 3.5 µL/min, the Serum creatinine is listed as 0.9 ± 0.1 mg/dL, the “Serum cystatin-C” value is 1092 ± 56.5 ng/mL and the Serum glucose is reported as 170.9 ± 9.5 mg/dL. Besides, in data set [2] (mouse, in vivo), the Serum phosphate is reported as 9.7 ± 0.3 mg/dL, the Serum urea turned out to be 63.6 ± 3.8 mg/dL, the Urine creatinine stood at 22.1 ± 2.7 mg/dL and the Urine glucose/creatinine is on record as 25.8 ± 4.0 g/g. Also, in data set [2] (mouse, in vivo), the Urine phosphate/creatinine came out at 1.9 ± 0.2 g/g and the Urine urea/creatinine stood at 238.2 ± 17.3 g/g. In the data set with NaPi-IIa and SGLT-2, the “NaPi-IIa and SGLT-2 mRNA levels (apical differentiation markers)” value was “failed to protect”. Further, the “lysosomal enlargement/deformation in PTCs” value in data set [3] was “prevent lysosomal enlargement and distorsion”. The “Urine CC16/creatinine” value with megalin pathway [4] (setting [5]) was found to be 3151 ± 556.1 µg/g.

As to `NCCCC[C@H](N)C(=O)O` [5x-L-lysine, L-lysine], the “increase of urinary excretion of CC16 (normalized for creatinine excretion)” value in the data set with megalin pathway [1] is given as 7 fold. The Body weight in data set [2] (Ctns KO mice at 8 months of age, 2 months of treatment, mean ± SEM) is recorded as 23.0 ± 0.9 g. In addition, in data set [2] (setting [6]), the Serum creatinine is 0.8 ± 0.1 (n = 9) mg/dL, the “Serum cystatin-C” value stood at 669.2 ± 33.2 ng/mL, the Serum glucose is given as 169.1 ± 9.3 (n = 9) mg/dL and the Serum phosphate is 10.1 ± 0.5 (n = 9) mg/dL. Moreover, the Serum urea in data set [2] (setting [6]) was 58.3 ± 2.6 (n = 9) mg/dL. In data set [2] (setting [5]), this compound showed a Daily creatinine output of 0.7 ± 0.1 mg/day, a Diuresis of 2.8 ± 0.2 mL/day, a Urine creatinine of 25.6 ± 2.5 mg/dL and a Urine glucose/creatinine of 19.0 ± 4.6 g/g. In data set [2] (setting [5]), this compound yielded a Urine phosphate/creatinine of 2.3 ± 0.4 g/g and a Urine urea/creatinine of 173.0 ± 15.2 g/g. Further, the “NaPi-IIa and SGLT-2 mRNA levels (apical differentiation markers)” value in the data set with NaPi-IIa and SGLT-2 is recorded as “significant yet limited benefit”. In data set [3], the “endogenous albumin signal in PTC lysosomes” value is on record as “disappearance of albumin signal”; the “lysosomal enlargement/deformation in PTCs” value is “prevent lysosomal enlargement and distorsion”. Further, the “increase of microalbuminuria vs control diet” value in the data set with megalin pathway [4] (Ctns KO female mice, diet from 6-to-8 months of age) is “no detectable increase”. Besides, in the data set on megalin pathway [4] (setting [5]), the “Urine CC16/creatinine” value turned out to be 4314 ± 540.3 µg/g and the Urine microalbumin/creatinine was determined as 0.1 ± 0.0 mg/g.
